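In this assay, cells in 96-well plates receive the compound at five concentrations for 48 hours. Endpoints are linearly interpolated between the surrounding concentrations. At the GI50, growth is halved. TGI is the concentration that stops growth completely.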
Columns and labels:
Assay in all cases: DTP human tumour cell line panel, 48 h
[1] = test system: SK-OV-3 ovarian
[2] = test system: HL-60(TB) leukemia
[3] = test system: HOP-62 NSCLC
[4] = test system: UACC-257 melanoma
[5] = test system: M14 melanoma
[6] = test system: SN12C renal
[7] = test system: SK-MEL-28 melanoma
[8] = test system: MDA-MB-231 breast
[9] = test system: NCI-H522 lung
[10] = test system: HT29 colon
[11] = test system: A498 renal
[12] = test system: MOLT-4 leukemia
[13] = test system: TK-10 renal
[14] = test system: PC-3 prostate
[15] = test system: SK-MEL-2 melanoma
[16] = test system: 786-0 renal
[17] = test system: UACC-62 melanoma
[18] = test system: NCI-H226 lung
[19] = test system: LOX IMVI melanoma
[20] = test system: DU-145 prostate
[21] = test system: MDA-MB-435
[22] = test system: RXF 393 renal
[23] = test system: MCF7 breast
[24] = test system: IGROV1 ovarian
[25] = test system: SF-539 CNS
[26] = test system: K-562 leukemia
[27] = test system: MALME-3M melanoma
[28] = test system: KM12 colon
[29] = test system: NCI-H460 lung
[30] = test system: HCC-2998 colon
[31] = test system: HS 578T breast
[32] = test system: SNB-75 CNS
[33] = test system: NCI/ADR-RES ovarian
[34] = test system: HCT-116 colon
[35] = test system: OVCAR-3 ovarian
[36] = test system: BT-549 breast
[37] = test system: SNB-19 CNS
[38] = test system: SK-MEL-5 melanoma
[39] = test system: T-47D breast
[40] = test system: EKVX NSCLC
[41] = test system: OVCAR-8 ovarian
[42] = test system: SW-620 colon
[43] = test system: COLO 205 colon
[44] = test system: ACHN renal
[45] = test system: CAKI-1 renal
[46] = test system: HOP-92 NSCLC
[47] = test system: SF-268 CNS
[48] = test system: NCI-H23 lung
[49] = test system: OVCAR-5 ovarian
[50] = test system: OVCAR-4 ovarian
[51] = test system: RPMI-8226 leukemia
[52] = test system: UO-31 renal
[53] = test system: HCT-15 colon
[54] = test system: CCRF-CEM leukemia
[55] = test system: A549 NSCLC
[56] = test system: SF-295 CNS
[57] = test system: U251 CNS
[58] = test system: SR leukemia

Compound: Cc1cccc(-c2nn3c(c2-c2ccnc4ccc(C(N)=O)cc24)CCC3)n1
- GI50 [1]: > 100 µM
- TGI [1]: > 100 µM
- GI50 [2]: > 100 µM
- TGI [2]: > 100 µM
- GI50 [3]: > 100 µM
- TGI [3]: > 100 µM
- GI50 [4]: > 100 µM
- TGI [4]: > 100 µM
- GI50 [5]: > 91.9 µM
- TGI [5]: > 100 µM
- GI50 [6]: > 100 µM
- TGI [6]: > 100 µM
- GI50 [7]: > 100 µM
- TGI [7]: > 100 µM
- GI50 [8]: > 100 µM
- TGI [8]: > 100 µM
- GI50 [9]: > 100 µM
- TGI [9]: > 100 µM
- GI50 [10]: 52.5 µM
- TGI [10]: > 100 µM
- GI50 [11]: 97.5 µM
- TGI [11]: > 100 µM
- GI50 [12]: > 100 µM
- TGI [12]: > 100 µM
- GI50 [13]: > 100 µM
- TGI [13]: > 100 µM
- GI50 [14]: > 100 µM
- TGI [14]: > 100 µM
- GI50 [15]: > 100 µM
- TGI [15]: > 100 µM
- GI50 [16]: > 100 µM
- TGI [16]: > 100 µM
- GI50 [17]: 78.8 µM
- TGI [17]: > 100 µM
- GI50 [18]: > 100 µM
- TGI [18]: > 100 µM
- GI50 [19]: > 100 µM
- TGI [19]: > 100 µM
- GI50 [20]: > 100 µM
- TGI [20]: > 100 µM
- GI50 [21]: > 91.4 µM
- TGI [21]: > 100 µM
- GI50 [22]: > 100 µM
- TGI [22]: > 100 µM
- GI50 [23]: > 100 µM
- TGI [23]: > 100 µM
- GI50 [24]: > 92.3 µM
- TGI [24]: > 100 µM
- GI50 [25]: > 100 µM
- TGI [25]: > 100 µM
- GI50 [26]: > 100 µM
- TGI [26]: > 100 µM
- GI50 [27]: 57.2 µM
- TGI [27]: > 100 µM
- GI50 [28]: > 100 µM
- TGI [28]: > 100 µM
- GI50 [29]: > 100 µM
- TGI [29]: > 100 µM
- GI50 [30]: > 100 µM
- TGI [30]: > 100 µM
- GI50 [31]: > 100 µM
- TGI [31]: > 100 µM
- GI50 [32]: > 100 µM
- TGI [32]: > 100 µM
- GI50 [33]: > 100 µM
- TGI [33]: > 100 µM
- GI50 [34]: > 100 µM
- TGI [34]: > 100 µM
- GI50 [35]: > 100 µM
- TGI [35]: > 100 µM
- GI50 [36]: > 100 µM
- TGI [36]: > 100 µM
- GI50 [37]: > 100 µM
- TGI [37]: > 100 µM
- GI50 [38]: > 100 µM
- TGI [38]: > 100 µM
- GI50 [39]: 57.6 µM
- TGI [39]: > 100 µM
- GI50 [40]: > 100 µM
- TGI [40]: > 100 µM
- GI50 [41]: > 100 µM
- TGI [41]: > 100 µM
- GI50 [42]: > 100 µM
- TGI [42]: > 100 µM
- GI50 [43]: > 100 µM
- TGI [43]: > 100 µM
- GI50 [44]: > 100 µM
- TGI [44]: > 100 µM
- GI50 [45]: > 100 µM
- TGI [45]: > 100 µM
- GI50 [46]: > 100 µM
- TGI [46]: > 100 µM
- GI50 [47]: > 100 µM
- TGI [47]: > 100 µM
- GI50 [48]: > 100 µM
- TGI [48]: > 100 µM
- GI50 [49]: > 100 µM
- TGI [49]: > 100 µM
- GI50 [50]: > 100 µM
- TGI [50]: > 100 µM
- GI50 [51]: > 100 µM
- TGI [51]: > 100 µM
- GI50 [52]: > 100 µM
- TGI [52]: > 100 µM
- GI50 [53]: > 100 µM
- TGI [53]: > 100 µM
- GI50 [54]: > 100 µM
- TGI [54]: > 100 µM
- GI50 [55]: > 100 µM
- TGI [55]: > 100 µM
- GI50 [56]: > 100 µM
- TGI [56]: > 100 µM
- GI50 [57]: > 100 µM
- TGI [57]: > 100 µM

Compound: CCn1ncc2c1nc(-c1ccccc1)c[n+]2[O-]
- TGI [4]: > 100 µM
- TGI [5]: > 100 µM
- TGI [6]: > 100 µM
- TGI [7]: > 100 µM
- TGI [9]: > 100 µM
- TGI [10]: > 100 µM
- TGI [58]: > 100 µM
- TGI [12]: > 100 µM
- TGI [14]: > 100 µM
- TGI [15]: > 100 µM
- TGI [16]: > 100 µM
- TGI [17]: > 100 µM
- TGI [20]: > 100 µM
- TGI [21]: > 100 µM
- TGI [23]: > 100 µM
- TGI [24]: > 100 µM
- TGI [25]: > 100 µM
- TGI [26]: > 100 µM
- TGI [28]: > 100 µM
- TGI [29]: > 100 µM
- TGI [31]: > 100 µM
- TGI [32]: > 100 µM
- TGI [33]: > 100 µM
- TGI [34]: > 100 µM
- TGI [35]: > 100 µM
- TGI [37]: > 100 µM
- TGI [39]: > 100 µM
- TGI [40]: > 100 µM
- TGI [41]: > 100 µM
- TGI [43]: > 100 µM
- TGI [44]: > 100 µM
- TGI [47]: > 100 µM
- TGI [48]: > 100 µM
- TGI [49]: > 100 µM
- TGI [51]: > 100 µM
- TGI [52]: > 100 µM
- TGI [53]: > 100 µM
- TGI [54]: > 100 µM
- TGI [55]: > 100 µM
- TGI [56]: > 100 µM

Compound: CCOC(CCCNCCCn1c2c(c3cc(OC)c(OC)cc3c1=O)C(=O)c1cc3c(cc1-2)OCO3)OCC
- GI50 [1]: 6.47 µM
- TGI [1]: 12.8 µM
- GI50 [2]: 5.25 µM
- TGI [2]: 11.1 µM
- GI50 [4]: 7.21 µM
- TGI [4]: 13.7 µM
- GI50 [5]: 5.25 µM
- TGI [5]: 11.1 µM
- GI50 [6]: 5.04 µM
- TGI [6]: 10.8 µM
- GI50 [7]: 6.22 µM
- TGI [7]: 12.5 µM
- GI50 [8]: 2.65 µM
- TGI [8]: 10.1 µM
- GI50 [9]: 5.34 µM
- TGI [9]: 11.3 µM
- GI50 [10]: 5.12 µM
- TGI [10]: 10.9 µM
- GI50 [11]: 5.79 µM
- TGI [11]: 12.1 µM
- GI50 [13]: 6.79 µM
- TGI [13]: 13.2 µM
- GI50 [14]: 5.38 µM
- TGI [14]: 11.3 µM
- GI50 [15]: 7.59 µM
- TGI [15]: 14.2 µM
- GI50 [16]: 4.35 µM
- TGI [16]: 10.6 µM
- GI50 [17]: 6.03 µM
- TGI [17]: 12.2 µM
- GI50 [18]: 3.43 µM
- TGI [18]: 10.7 µM
- GI50 [19]: 1.73 µM
- TGI [19]: 9.81 µM
- GI50 [21]: 7.32 µM
- TGI [21]: 13.9 µM
- GI50 [22]: 4.45 µM
- TGI [22]: 10.7 µM
- GI50 [23]: 1.19 µM
- TGI [23]: 9.3 µM
- GI50 [24]: 0.889 µM
- TGI [24]: 9.66 µM
- GI50 [26]: 5.53 µM
- TGI [26]: 11.5 µM
- GI50 [27]: 6.77 µM
- TGI [27]: 13.6 µM
- GI50 [28]: 5.93 µM
- TGI [28]: 12.1 µM
- GI50 [29]: 0.884 µM
- TGI [29]: 7.3 µM
- GI50 [31]: 5.76 µM
- TGI [31]: 12.7 µM
- GI50 [32]: 0.443 µM
- TGI [32]: 10.3 µM
- GI50 [33]: 6.5 µM
- TGI [33]: 13.7 µM
- GI50 [34]: 2.41 µM
- TGI [34]: 9.83 µM
- GI50 [35]: 7.65 µM
- TGI [35]: 14.3 µM
- GI50 [37]: 6.13 µM
- TGI [37]: 12.3 µM
- GI50 [38]: 7.62 µM
- TGI [38]: 14.3 µM
- GI50 [39]: 7.76 µM
- TGI [39]: 14.4 µM
- GI50 [41]: 5.27 µM
- TGI [41]: 11.2 µM
- GI50 [42]: 2.63 µM
- TGI [42]: 10.5 µM
- GI50 [43]: 7.81 µM
- TGI [43]: 14.5 µM
- GI50 [44]: 1.28 µM
- TGI [44]: 7.66 µM
- GI50 [45]: 1.43 µM
- TGI [45]: 7.61 µM
- GI50 [46]: 0.126 µM
- TGI [46]: 8.47 µM
- GI50 [47]: 2.97 µM
- TGI [47]: 10.4 µM
- GI50 [48]: 5.65 µM
- TGI [48]: 11.7 µM
- GI50 [49]: 10.2 µM
- TGI [49]: 17.3 µM
- GI50 [50]: 6.69 µM
- TGI [50]: 13.1 µM
- GI50 [51]: 0.308 µM
- TGI [51]: 8.45 µM
- GI50 [52]: 5.82 µM
- TGI [52]: 11.9 µM
- GI50 [53]: 6.1 µM
- TGI [53]: 12.3 µM
- GI50 [54]: 0.759 µM
- TGI [54]: 6.24 µM
- GI50 [55]: 5.73 µM
- TGI [55]: 11.8 µM
- GI50 [56]: 1.45 µM
- TGI [56]: 8.6 µM
- GI50 [57]: 1.51 µM
- TGI [57]: 9.44 µM
